Tested on: SK-N-SH human neuroblastoma cells
Experiment: Serum Deprivation/JC-1 Mitochondrial Membrane Potential (MMP) Assay
Format: cell-based
Settings: for Emax / JC-1 max %: percent maximal JC-1 ratio normalized to peak value for 10 μM dimebolin; for Emax: read-out: JC-1 max %; for EC50: serum deprivation ~18 hours, JC-1 ratio normalized to peak value for 10 μM dimebolin
Method: Tissue Culture: SK-N-SH human neuroblastoma cells obtained from American Type Culture Collection (Rockville, Md.) were maintained in the log phase of growth in Minimal Essential Media (MEM), 10% heat inactivated fetal calf serum and 100 units/mL antibiotic-antimycotic (AA). Cells were cultured and maintained in a humidified incubator at 37° C. under 5% CO2 and 95% air. Cells were trypsinized (0.25%) and subcultured every 3 days and used from 15-18 passages. All cell culture supplies were obtained from Invitrogen (Carlsbad, Calif.).
Serum Deprivation/JC-1 Mitochondrial Membrane Potential (MMP) Assay.
SK-N-SH cells were plated 2-3 days in advance at a concentration of 50,000 cells/well onto collagen coated black-walled 96 well plates (Becton-Dickinson, Bedford, Mass.) in a total volume of 200 μL. On day of experimental treatment, the media containing serum was aspirated from each well and rinsed once with MEM/1% AA without serum. The cells then were incubated overnight in 100 μL of MEM/1% AA (no serum) with and without dimebolin or novel chemical entities overnight for ˜18 hours. The following day, JC-1 dye (5,5′,6,6′-tetrachloro-1,1′,3,3′-tetraethylbenzimidazolcarbocyanide) was diluted 1:10 into MEM media according to the JC-1 Mitochondrial Membrane Potential Assay Kit: (Cayman Chemical Company, Ann Arbor, Mich.) and then 10 μL of the JC-1 dye solution was added to each well. The plates were centrifuged for 5 minutes at 400×g at room temperature followed by 40 minute incubation at 37° C. The plates were washed twice with 200 μL of provided Assay Buffer followed an addition of 100 μL of Assay Buffer to each well. The plates were read with an excitation and emission of 560 nm and 595 nM for red fluorescence and with an excitation and emission of […] and 535 nM for green fluorescence to determine the final JC-1 value taking the red to green fluorescence ratio. This assay is based on change in mitochondrial membrane potential (MMP) using this lipophilic cationic dye, JC-1, by monitoring the changes in the ratio of red to green fluorescence as the MMP depolarizes. This change in MMP reflects the health of the cell with healthy, viable cells have a high JC-1 ratio and high MMP whereas apoptotic, unhealthy cells have a low JC-1 ratio or low MMP.
For the ability of compounds to reverse the stress due to serum deprivation and increase the JC-1 ratio, the percent maximal intensity in JC-1 ratio was normalized to that induced by the peak value for 10 μM dimebolin and plotted against the compound concentration to calculate EC50 values and to control for plate-to-plate variability. Concentration-response data were analyzed using GraphPad Prism (San Diego, Calif.); the EC50 values were derived from a single curve fit to the mean data of n=2-3, in duplicates.
All compounds were dissolved in dimethyl sulfoxide at 10 mM stock solutions and tested at a concentration that the dimethyl sulfoxide levels never exceeded 1%.

Row | SMILES | Emax (Homo sapiens, SK-N-SH) [%] | EC50 (Homo sapiens, SK-N-SH) [µM] | JC-1 max % [%] | EC50 [µM]
1 | Cc1ccc(/C=C/c2cc(F)cc3c4c([nH]c23)C2CCN(CC2)C4)cn1 [Example 25, 9-fluoro-7-[(E)-2-(6-methylpyridin-3-yl)vinyl]-3,4,5,6-tetrahydro-1H-2,5-ethanoazepino[4,3-b]indole] | 127 | 3.42 | – | –
2 | Clc1ccc(/C=C/c2cccc3c4c([nH]c23)C2CCN(CC2)C4)cc1 [Example 4, 7-[(E)-2-(4-chlorophenyl)vinyl]-3,4,5,6-tetrahydro-1H-2,5-ethanoazepino[4,3-b]indole] | 123 | 4.09 | – | –
3 | Cc1ccc(CCc2cccc3c4c([nH]c23)CN2CCC4CC2)cn1 [Example 33, 9-[2-(6-methylpyridin-3-yl)ethyl]-3,4,5,10-tetrahydro-1H-2,5-ethanoazepino[3,4-b]indole] | 197 | 6.01 | – | –
4 | Cc1ccc(/C=C\c2cccc3c4c([nH]c23)C2CCN(CC2)C4)cn1 [Example 31, 7-[(Z)-2-(6-methylpyridin-3-yl)vinyl]-3,4,5,6-tetrahydro-1H-2,5-ethanoazepino[4,3-b]indole] | 120 | 7.75 | – | –
5 | C(=C\c1cccc2c3c([nH]c12)C1CCN(CC1)C3)/c1ccncc1 [Example 11, 7-[(E)-2-pyridin-4-ylvinyl]-3,4,5,6-tetrahydro-1H-2,5-ethanoazepino[4,3-b]indole] | 171 | 6.73 | – | –
6 | C(=C\c1cccc2c3c([nH]c12)C1CCN(CC1)C3)/c1cccnc1 [Example 34, 7-[(E)-2-pyridin-3-ylvinyl]-3,4,5,6-tetrahydro-1H-2,5-ethanoazepino[4,3-b]indole] | 109 | 6.3 | – | –
7 | Fc1cccc(CCc2cccc3c4c([nH]c23)C2CCN(CC2)C4)c1 [Example 16, 7-[2-(3-fluorophenyl)ethyl]-3,4,5,6-tetrahydro-1H-2,5-ethanoazepino[4,3-b]indole] | 49 | > 30 | – | –
8 | Cc1ccc(/C=C/c2cccc3c2NC2C4CCN(CC4)CC32)cn1 (stereo not drawn) [Example 36, (cis)-7-[(E)-2-(6-methylpyridin-3-yl)vinyl]-3,4,5,5a,6,10b-hexahydro-1H-2,5-ethanoazepino[4,3-b]indole] | – | – | 196 | 6.89
9 | C(=C\c1cccc2c3c([nH]c12)C1CCN(CC1)C3)/c1cncnc1 (single isomer, unassigned) [Example 29, 7-[(E)-2-(pyrimidin-5-yl)vinyl]-3,4,5,6-tetrahydro-1H-2,5-ethanoazepino[4,3-b]indole] | 54 | 5.33 | – | –
10 | Fc1ccc(/C=C/c2cccc3c4c([nH]c23)C2CCN(CC2)C4)cc1 [Example 10, 7-[(E)-2-(4-fluorophenyl)vinyl]-3,4,5,6-tetrahydro-1H-2,5-ethanoazepino[4,3-b]indole] | 84 | 4.74 | – | –
11 | C(=C\c1cccc2c3c([nH]c12)C1CCN(CC1)C3)/c1ccccc1 [Example 19, 7-[(E)-2-phenylvinyl]-3,4,5,6-tetrahydro-1H-2,5-ethanoazepino[4,3-b]indole] | 64 | 3.52 | – | –
12 | Fc1ccc(/C=C/c2cccc3c4c([nH]c23)C2CCN(CC2)C4)c(F)c1 [Example 14, 7-[(E)-2-(2,4-difluorophenyl)vinyl]-3,4,5,6-tetrahydro-1H-2,5-ethanoazepino[4,3-b]indole] | 39 | > 30 | – | –
13 | C(#Cc1cccc2c3c([nH]c12)C1CCN(CC1)C3)c1ccncc1 [Example 21, 7-(pyridin-4-ylethynyl)-3,4,5,6-tetrahydro-1H-2,5-ethanoazepino[4,3-b]indole] | 104 | 3.69 | – | –
14 | c1ccc(COc2cccc3c4c([nH]c23)C2CCN(CC2)C4)cc1 [Example 26, 7-(benzyloxy)-3,4,5,6-tetrahydro-1H-2,5-ethanoazepino[4,3-b]indole] | 494 | 9.81 | – | –
15 | C(=C\c1cccc2c3c([nH]c12)C1CCN(CC1)C3)/CCCc1ccccc1 [Example 5, 7-[(1E)-5-phenylpent-1-enyl]-3,4,5,6-tetrahydro-1H-2,5-ethanoazepino[4,3-b]indole] | 58 | 5.27 | – | –
16 | Cc1ccc(CCc2ccc3[nH]c4c(c3c2)CN2CCC4CC2)cn1 [Example 9, 9-[2-(6-methylpyridin-3-yl)ethyl]-3,4,5,6-tetrahydro-1H-2,5-ethanoazepino[4,3-b]indole] | 110 | 3.94 | – | –
17 | FC(F)(F)Oc1ccc(C#Cc2cccc3c4c([nH]c23)C2CCN(CC2)C4)cc1 [Example 20, 7-{[4-(trifluoromethoxy)phenyl]ethynyl}-3,4,5,6-tetrahydro-1H-2,5-ethanoazepino[4,3-b]indole] | 47 | > 30 | – | –
18 | c1ccc2ncc(-c3cccc4c5c([nH]c34)C3CCN(CC3)C5)cc2c1 [Example 41, 7-(quinolin-3-yl)-3,4,5,6-tetrahydro-1H-2,5-ethanoazepino[4,3-b]indole] | 171 | 3.68 | – | –
19 | C(=C\c1cccc2c3c([nH]c12)C1CCN(CC1)C3)/c1ccccn1 [Example 12, 7-[(E)-2-pyridin-2-ylvinyl]-3,4,5,6-tetrahydro-1H-2,5-ethanoazepino[4,3-b]indole] | 192 | 3.56 | – | –
20 | Cc1ccc(C#Cc2ccc3c4c([nH]c3c2)C2CCN(CC2)C4)cn1 [Example 22, 8-[(6-methylpyridin-3-yl)ethynyl]-3,4,5,6-tetrahydro-1H-2,5-ethanoazepino[4,3-b]indole] | 185 | 8.66 | – | –
21 | Fc1cccc(/C=C/c2cccc3c4c([nH]c23)C2CCN(CC2)C4)c1 [Example 15, 7-[(E)-2-(3-fluorophenyl)vinyl]-3,4,5,6-tetrahydro-1H-2,5-ethanoazepino[4,3-b]indole] | 44 | > 30 | – | –
22 | Cc1ccc(CCc2cccc3c4c([nH]c23)C2CCN(CC2)C4)cn1 [Example 2, 7-[2-(6-methylpyridin-3-yl)ethyl]-3,4,5,6-tetrahydro-1H-2,5-ethanoazepino[4,3-b]indole] | 170 | 5.22 | – | –
23 | c1cncc(-c2cccc3c4c([nH]c23)C2CCN(CC2)C4)c1 [Example 39, 7-(pyridin-3-yl)-3,4,5,6-tetrahydro-1H-2,5-ethanoazepino[4,3-b]indole] | 113 | 10.3 | – | –
24 | Cc1ccc(/C=C/c2cccc3c4c([nH]c23)C2CCCN(C4)C2)cn1 (stereo not drawn) [Example 35, 8-[(E)-2-(6-methylpyridin-3-yl)vinyl]-1,3,4,5,6,7-hexahydro-2,6-methanoazocino[4,3-b]indole] | 213 | 7.28 | – | –
25 | C(#Cc1cccc2c3c([nH]c12)C1CCN(CC1)C3)c1cccnc1 [Example 13, 7-(pyridin-3-ylethynyl)-3,4,5,6-tetrahydro-1H-2,5-ethanoazepino[4,3-b]indole] | 142 | 5.17 | – | –
26 | c1cc(-c2cncnc2)c2[nH]c3c(c2c1)CN1CCC3CC1 [Example 38, 7-(pyrimidin-5-yl)-3,4,5,6-tetrahydro-1H-2,5-ethanoazepino[4,3-b]indole] | 76 | 10.5 | – | –
27 | Cc1ccc(/C=C/c2cccc3c4c([nH]c23)C2CC[N+]([O-])(CC2)C4)cn1 [Example 28, 7-[(E)-2-(6-methylpyridin-3-yl)yinyl]-1,2,3,4,5,6-hexahydro-2,5-ethanoazepino[4,3-b]indole 2-oxide] | – | – | 50 | > 30

Reference: US8524703B2, “Bridgehead amine ring-fused indoles and indolines” (AbbVie Inc., priority 2009, dated 2013)
